Experimental data from patent US11608332B2, “FGFR4 inhibitor and preparation method and use thereof” (Jiangsu Hansoh Pharmaceutical Group Co., Ltd., priority 2016, dated 2023).

Assays:
FGFR4 kinase = FGFR4 kinase (Homo sapiens (Human), UniProt P22455); assay: Enzymologic experiment of FGFR4 (TR-FRET); type: biochemical; conditions: TR-FRET kinase activity
Procedure: 1. Enzymologic Experiment of FGFR4
In this experiment, the inhibitory effect of the compounds on FGFR4 kinase activity was tested by a fluorescence resonance energy transfer (TR-FRET) method, and the half maximal inhibitory concentration (IC50) of the compounds on the FGFR4 kinase activity was determined.
2) 1˜5 μL of diluted solution in gradient of the compound were added.
(§1) 4) The mixture was incubated for 0.5-3 hours at room temperature.
(§2) 5) 10 μL of EDTA and a test solution comprising labeled antibody were added, and the plate was incubated for 1 hour at room temperature.
(§3) 6) The fluorescence signal values of each plate were determined by a microplate reader at 665 nm.
(§4) 7) The inhibition rates were calculated according to the fluorescence signal values.

FGFR1 kinase = FGFR1 kinase (Homo sapiens (Human), UniProt P11362); assay: Enzymologic experiment of FGFR1 (TR-FRET); type: biochemical; conditions: TR-FRET kinase activity
Procedure: 2. Enzymologic Experiment of FGFR1
In this experiment, the inhibitory effect of the compounds on FGFR1 kinase activity was tested by a fluorescence resonance energy transfer (TR-FRET) method, and the half maximal inhibitory concentration (IC50) of the compounds on the FGFR1 kinase activity was determined.
1) 1˜5 μL of FGFR1 enzymatic solution was added to a 384-well plate, and the final concentration of the enzyme was 0.1˜5 nM.
2) 1˜5 μL of diluted solution in gradient of the compound was added.
3) 1˜5 μL of a substrate mixture containing substrate polypeptide with a final concentration of 5˜50 nM and ATP with a final concentration of 10˜200 μM was added.
as §1, §2, §3, §4
The IC50 of the compound was obtained by curve fitting according to the inhibition rates at different concentrations, and the enzymatic activity of the specific example compounds is shown in Table 1.

Hep 3B cells = assay: Inhibition of Hep 3B cell proliferation (CellTiter-Glo); type: cell-based; conditions: Homo sapiens, Hep3B, 72 hours
Procedure: 3. Experiment on the Inhibition of Hep 3B Cell Proliferation
In this experiment, the inhibitory effect of the compounds on Hep 3B cell proliferation was tested by a CellTiter-Glo method, and the half maximal inhibitory concentration (IC50) of the compounds on the activity of cell proliferation was determined.
1) A 96-well cell culture plate was seeded with 50˜100 μL of Hep 3B cell suspension at a density of 1-5×10^4 cells/ml. The culture plate was incubated in an incubator for 16-24 hours (37° C., 5% CO2).
(§5) 2) Different concentrations of the test compound in a gradient dilution were added to the cells in the culture plate. The culture plate was incubated in an incubator for 72 hours (37° C., 5% CO2).
3) 50-100 μL of CellTiter-Glo reagent were added to each well. Then, the culture plate was shaken or left to stand for 5˜30 minutes at room temperature.
(§6) 4) The chemiluminescence signal values of each plate were determined by a microplate reader.
(§7) 5) The inhibition rates were calculated according to the chemiluminescence signal values.
6) The IC50 of the compound was obtained by curve fitting according to the inhibition rates at different concentrations, and the cell activity of the specific example compounds is shown in Table 2.

HuH-7 cells = assay: Inhibition of HuH-7 cell proliferation (CellTiter-Glo); type: cell-based; conditions: Homo sapiens, 72 hours
Procedure: 4. Experiment on the Inhibition of HuH-7 Cell Proliferation
In this experiment, the inhibitory effect of the compounds on HuH-7 cell proliferation was tested by a CellTiter-Glo method, and the half maximal inhibitory concentration (IC50) of the compounds on the activity of cell proliferation was determined.
1) A 96-well cell culture plate was seeded with 50˜100 μL of HuH-7 cell suspension at a density of 1-5×10^4 cells/ml. The culture plate was incubated in an incubator for 16˜24 hours (37° C., 5% CO2).
as §5
(§8) 3) 50˜100 μL of CellTiter-Glo reagent were added to each well. Then, the culture plate was shaken or left to stand for 5˜30 minutes at room temperature.
as §6, §7
6) The IC50 of the compound was obtained by curve fitting according to the inhibition rates at different concentrations, and the cell activity of the specific Example compounds is shown in Table 2.

SK-HEP-1 cells = assay: Inhibition of SK-HEP-1 cell proliferation (CellTiter-Glo); type: cell-based; conditions: Homo sapiens, SK-HEP1, 72 hours
Procedure: 5. Experiment on the Inhibition of SK-HEP-1 Cell Proliferation
In this experiment, the inhibitory effect of the compounds on SK-HEP-1 cell proliferation was tested by a CellTiter-Glo method, and the half maximal inhibitory concentration (IC50) of the compounds on the activity of cell proliferation was determined.
1) A 96-well cell culture plate was seeded with 50˜100 μL of SK-HEP-1 cell suspension at a density of 1-5×10^4 cells/ml. The culture plate was incubated in an incubator for 16˜24 hours (37° C., 5% CO2).
as §5, §8, §6, §7
The IC50 of the compound was obtained by curve fitting according to the inhibition rates at different concentrations, and the cell activity of the specific Example compounds is shown in Table 2.

[1] = Pharmacokinetic (PK) analysis in rats; type: in vivo, Sprague Dawley (SD) rats; conditions: SD rats, single intragastric administration, 5 mg/kg, plasma; for AUC(0-t) / AUC(0-inf) / half-life / MRT / Cmax: Sprague-Dawley, rat, po; for AUC(0-t): read-out: Area Under Curve AUC0-t; for AUC(0-inf): read-out: Area Under Curve AUC0-∞; for half-life: read-out: Half-Time t1/2 (converted); for MRT: read-out: Mean Residence Time MRT; for Cmax: read-out: Plasma Concentration Cmax
Procedure: 6. Pharmacokinetic (PK) Analysis in Rats
Mode of administration: a single intragastric administration.
Formulation: 0.5% CMC and 1% Tween 80, ultrasonic dissolution.
Sampling points: 0.5, 1, 2, 4, 6, 8 and 24 hours after administration.
1. 1.0 ml of intravenous blood was collected and placed in a K2EDTA test tube.
The blood was centrifuged at room temperature at the speed of 1000˜3000×g for 5˜20 minutes to isolate the plasma, which was then stored at −80° C. 2. 160 μL of acetonitrile were added to 40 μL of plasma sample for precipitation, and then the mixture was centrifuged at the speed of 500˜2000×g for 5˜20 minutes. 3. 100 μL of treated solution were taken, and the concentration of the test compound was analyzed by LC/MS/MS. The LC/MS/MS analytical instrument was AB Sciex API 4000.
Liquid Chromatography Analysis:
Condition of Liquid chromatography: Shimadzu LC-20AD pump
Chromatographic column: phenomenex Gemiu 5 um C18 50×4.6 mm
Mobile phase: Solution A is 0.1% aqueous formic acid solution, and solution B is acetonitrile
Elution time: 0-3.5 minutes, the eluent was as follows:
Mass spectrometry analysis:
Mass spectrometer setup conditions: positive ion electrospray ionization (ESI) mode.

Chain of FGFR1 kinase (P11362 22-822): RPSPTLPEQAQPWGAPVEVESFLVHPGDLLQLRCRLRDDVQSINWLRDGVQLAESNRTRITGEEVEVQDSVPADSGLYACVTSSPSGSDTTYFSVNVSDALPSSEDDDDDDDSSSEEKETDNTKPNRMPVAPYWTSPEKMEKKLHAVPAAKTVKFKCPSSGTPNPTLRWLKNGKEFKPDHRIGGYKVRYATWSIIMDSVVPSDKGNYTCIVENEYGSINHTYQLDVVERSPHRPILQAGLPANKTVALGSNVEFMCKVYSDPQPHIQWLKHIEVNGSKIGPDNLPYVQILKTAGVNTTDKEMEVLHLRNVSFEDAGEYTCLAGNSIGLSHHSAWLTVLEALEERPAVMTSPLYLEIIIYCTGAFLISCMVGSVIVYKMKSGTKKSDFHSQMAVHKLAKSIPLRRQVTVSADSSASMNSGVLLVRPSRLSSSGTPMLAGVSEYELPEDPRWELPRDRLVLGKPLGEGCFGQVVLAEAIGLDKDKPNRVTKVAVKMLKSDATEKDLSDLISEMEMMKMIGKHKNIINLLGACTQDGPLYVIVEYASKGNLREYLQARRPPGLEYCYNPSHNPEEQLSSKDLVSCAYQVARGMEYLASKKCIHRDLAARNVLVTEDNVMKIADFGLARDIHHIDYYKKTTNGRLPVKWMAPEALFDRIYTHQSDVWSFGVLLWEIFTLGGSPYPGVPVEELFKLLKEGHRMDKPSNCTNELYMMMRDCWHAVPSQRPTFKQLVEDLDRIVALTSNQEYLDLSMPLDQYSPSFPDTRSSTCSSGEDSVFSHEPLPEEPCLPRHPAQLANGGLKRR
Chain of FGFR4 kinase (P22455 22-802): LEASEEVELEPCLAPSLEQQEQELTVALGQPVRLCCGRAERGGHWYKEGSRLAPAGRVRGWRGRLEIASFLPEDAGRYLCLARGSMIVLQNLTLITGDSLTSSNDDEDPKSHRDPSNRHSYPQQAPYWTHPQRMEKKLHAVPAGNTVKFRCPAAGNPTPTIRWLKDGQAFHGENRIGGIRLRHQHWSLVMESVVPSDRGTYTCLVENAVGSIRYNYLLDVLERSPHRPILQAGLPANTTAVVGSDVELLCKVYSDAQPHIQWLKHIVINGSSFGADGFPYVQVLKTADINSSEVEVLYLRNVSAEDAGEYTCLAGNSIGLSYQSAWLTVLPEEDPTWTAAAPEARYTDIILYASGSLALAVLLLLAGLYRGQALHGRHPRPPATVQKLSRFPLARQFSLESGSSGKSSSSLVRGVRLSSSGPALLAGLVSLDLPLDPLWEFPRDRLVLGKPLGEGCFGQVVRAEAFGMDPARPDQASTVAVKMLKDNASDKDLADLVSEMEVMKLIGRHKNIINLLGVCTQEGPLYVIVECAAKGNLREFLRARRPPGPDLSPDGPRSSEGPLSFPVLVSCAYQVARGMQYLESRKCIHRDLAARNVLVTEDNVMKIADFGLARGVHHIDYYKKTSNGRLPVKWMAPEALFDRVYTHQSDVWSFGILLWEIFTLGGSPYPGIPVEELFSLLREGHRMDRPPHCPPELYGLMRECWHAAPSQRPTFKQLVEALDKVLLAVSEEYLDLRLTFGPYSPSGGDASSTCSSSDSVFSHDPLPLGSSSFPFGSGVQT

Row | IC50 (FGFR4 kinase) | Structure (SMILES) | IC50 (FGFR1 kinase) | IC50 (Hep 3B cells) | IC50 (HuH-7 cells) | IC50 (SK-HEP-1 cells) | Peak Time tmax [1] | AUC(0-t) [1] | AUC(0-inf) [1] | half-life [1] | MRT [1] | Cmax [1]
1 | 1.47 nM | CCN1CCC[C@@H]1C(=O)N(C)Cc1cc2c(nc1C=O)N(C(=O)Nc1cc(NCCOC)c(C#N)cn1)CCC2 [Example 97, (R)—N-(5-Cyano-4-((2-methoxyethyl)amino)pyridin-2-yl)-6-((1-ethyl-N-methylpyrrolidin-2-carboxamido)methyl)-7-formyl-3,4-dihydro-1,8-naphthyridin-1(2H)-carboxamide] | > 10000 nM | 9.8 nM | 43.7 nM | > 10000 nM |  |  |  |  |  | 
2 | 1.88 nM | COCCNc1cc(NC(=O)N2CCCc3cc(CN(C)C(=O)[C@H]4CCCN4C(C)=O)c(C=O)nc32)ncc1C#N [Example 10, (R)-6-((1-Acetyl-N-methylpyrrolidin-2-carboxamido)methyl)-N-(5-cyano-4-((2-methoxyethyl)amino)pyridin-2-yl)-7-formyl-3,4-dihydro-1,8-naphthyridin-1(2H)-carboxamide] | > 10000 nM |  |  |  | 2 h | 5260 ng·h/mL | 5340 ng·h/mL | 1 h | 2.8 h | 1960 ng/mL
3 |  | CO[C@H]1CCN(Cc2cc3c(nc2C=O)N(C(=O)Nc2cc(N[C@@H]4CCOC4)c(C#N)cn2)CCC3)C1=O [Example 85, N-(5-Cyano-4-(((R)-tetrahydrofuran-3-yl)amino)pyridin-2-yl)-7-formyl-6-(((S)-3-methoxy-2-carbonylpyrrolidin-1-yl)methyl)-3,4-dihydro-1,8-naphthyridin-1(2H)-carboxamide] | > 10000 nM | 2.6 nM | 4.6 nM | > 10000 nM | 2 h | 7280 ng·h/mL | 7370 ng·h/mL | 0.9 h | 3.3 h | 2120 ng/mL
4 |  | COCCNc1cc(NC(=O)N2CCCc3cc(CN4CC[C@H](OC)C4=O)c(C=O)nc32)ncc1C#N [Example 46, (S)—N-(5-Cyano-4-((2-methoxyethyl)amino)pyridin-2-yl)-7-formyl-6-((3-methoxy-2-carbonylpyrrolidin-1-yl)methyl)-3,4-dihydro-1,8-naphthyridin-1(2H)-carboxamide] | > 10000 nM | 2.3 nM | 9 nM | > 10000 nM | 2 h | 10700 ng·h/mL | 11300 ng·h/mL | 1 h |  | 3290 ng/mL
5 |  | CN(Cc1cc2c(nc1C=O)N(C(=O)Nc1cc(N[C@H]3CCOC3)c(C#N)cn1)CCC2)C(=O)[C@H]1CCCO1 [Example 94, N-(5-Cyano-4-(((S)-tetrahydrofuran-3-yl)amino)pyridin-2-yl)-7-formyl-6-(((R)—N-methyltetrahydrofuran-2-carboxamido)methyl)-3,4-dihydro-1,8-naphthyridin-1 (2H)-carboxamide] | > 10000 nM | 3.9 nM | 13.8 nM | > 10000 nM | 2 h | 13000 ng·h/mL | 12400 ng·h/mL | 0.8 h | 2.8 h | 3750 ng/mL
6 |  | COC[C@@H](C)Nc1cc(NC(=O)N2CCCc3cc(CN4CC[C@H](OC)C4=O)c(C=O)nc32)ncc1C#N [Example 89, N-(5-Cyano-4-(((R)-1-methoxypropan-2-yl)amino)pyridin-2-yl)-7-formyl-6-(((S)-3-methoxy-2-carbonylpyrrolidin-1-yl)methyl)-3,4-dihydro-1,8-naphthyridin-1(2H)-carboxamide] | > 10000 nM | 1.9 nM | 2.3 nM | > 10000 nM | 2 h | 3100 ng·h/mL | 3130 ng·h/mL | 1 h | 2.5 h | 1990 ng/mL
7 |  | CO[C@@H]1CCN(c2cc(NC(=O)N3CCCc4cc(CN5CC[C@H](OC)C5=O)c(C=O)nc43)ncc2C#N)C1 [Example 54, N-(5-Cyano-4-((R)-3-methoxypyrrolidin-1-yl)pyridin-2-yl)-7-formyl-6-(((S)-3-methoxy-2-carbonylpyrrolidin-1-yl)methyl)-3,4-dihydro-1,8-naphthyridin-1(2H)-carboxamide] | > 10000 nM | 4.4 nM | 11.3 nM | > 10000 nM | 2 h | 7130 ng·h/mL | 7870 ng·h/mL | 1 h | 2.7 h | 2870 ng/mL
8 | 4.2 nM | CO[C@@H]1CCN(c2cc(NC(=O)N3CCCc4cc(CN(C)C(=O)[C@H]5CCCO5)c(C=O)nc43)ncc2C#N)C1 [Example 18, N-(5-Cyano-4-((R)-3-methoxypyrrolidin-1-yl)pyridin-2-yl)-7-formyl-6-(((R)—N-methyltetrahydrofuran-2-carboxamido)methyl)-3,4-dihydro-1,8-naphthyridin-1(2H)-carboxamide] | > 10000 nM |  |  |  |  |  |  |  |  | 
9 |  | COCC(=O)N(C)Cc1cc2c(nc1C=O)N(C(=O)Nc1cc(N3CC[C@@H](OC)C3)c(C#N)cn1)CCC2 [Example 107, (R)—N-(5-Cyano-4-(3-methoxypyrrolidin-1-yl)pyridin-2-yl)-7-formyl-6-((2-methoxy-N-methylacetamido)methyl)-3,4-dihydro-1,8-naphthyridin-1(2H)-carboxamide] | > 10000 nM | 1.6 nM | 7.3 nM | > 10000 nM | 4 h | 2630 ng·h/mL | 2670 ng·h/mL | 1 h | 2.8 h | 1940 ng/mL
10 | 4.54 nM | CN(Cc1cc2c(nc1C=O)N(C(=O)Nc1cc(N(C)C)c(C#N)cn1)CCC2)C(=O)C1CCCO1 (stereo not shown) [Example 4, N-(5-Cyano-4-(dimethylamino)pyridin-2-yl)-7-formyl-6-((N-methyltetrahydrofuran-2-carboxamido)methyl)-3,4-dihydro-1,8-naphthyridin-1(2H)-carboxamide] | > 10000 nM |  |  |  |  |  |  |  |  | 
